The text below walks through data of patent publication US9371274B2, “Compound having read-through activity” (The University of Tokyo, priority 2011, dated 2016).

For experiment [1], the system named is reporter gene with premature stop codon (TGA) in COS-7 cells. Put plainly: In vitro read-through activity, COS-7 cells transfected with β-galactosidase/luciferase reporter gene. Type of experiment: cell-based, African green monkey. To be noted: for Read-through Activity: same method as Example 16, luciferase activity divided by β-galactosidase activity, 48 hours incubation, concentration for these values not given; for read-through activity / read-through efficiency (FIG. 1-3, in words): COS-7, TGA reporter, compared with negamycin. The procedure:
African green monkey SV40-transformed kidney fibroblast cell line (COS-7) was sown in 100×20 mm cell culture dishes manufactured by Falcon and cultured at 37° C. in 5% CO2. Fifty milliliters of fetal bovine serum (FBS) was added to 500 mL of D-MEM (containing high glucose, L-glutamine, and phenol red) manufactured by Wako Pure Chemical Industries Ltd., and culture broth prepared to adjust to 10% FBS was used as the culture broth. (Referred to hereinafter as culture broth.)
The Reporter Lysis Buffer 5×, assay 2× buffer, 1 M Na2CO3, and standard used in creation of the calibration curve referred to hereinafter are included in the β-Galactosidase Enzyme Assay System with Reporter Lysis Buffer manufactured by Promega.
COS-7 cells (8.0×10^3 cells/well) were seeded by continuous dispensing of 100 μL each into flat-bottom 96-well plates (Costar (registered trade mark) 3596) manufactured by Corning and incubated for 15-16 hours at 37° C.
A quantity of 4 μL/well of DNA solution prepared in a ratio of 1.32 μL (2 μg) of reporter gene (a construct obtained by linking a β-galactosidase gene and a luciferase gene and inserting a premature stop codon (TGA) at their juncture), 100 μL of OPTI-MEM (registered trade mark) I (Reduced Serum Medium 1×) manufactured by Invitrogen, and 4 μL of FuGENE (registered trade mark) HD Transfection Reagent manufactured by Roche was added to the solution and incubated for 10-11 hours at 37° C.
The entire culture broth was aspirated, and the compound to be evaluated was prepared to adjust to 200 μM by culture broth and added by continuously dispensing 200 μL/well. 100 μM and 50 μM were also prepared in the same way and added by continuously dispensing 200 μL each. Incubation was carried out for 48 hours at 37° C. after addition.
After 48 hours had elapsed, the entire culture broth in the well was aspirated and washed twice with PBS. The Reporter Lysis Buffer 5× was then diluted by MilliQ, and a solution prepared to adjust to Reporter Lysis Buffer l× was added by continuously dispensing 100 μL each and allowed to stand for 15 minutes at room temperature. The contents of each well were recovered thereafter, and the entire amount was transferred to Nunc microwell plates (V bottom) manufactured by Thermo Fisher Scientific and centrifuged (1800 rpm, 15 minutes). Eighty-five microliters of this lysate was transferred to Nunc low-binding 96-well plates (flat bottom) clear manufactured by Thermo Fisher Scientific.
Using Nunc low-binding 96-well plates (flat bottom) clear manufactured by Thermo Fisher Scientific, 30 μL/well of Reporter Lysis Buffer l× was added by dispensing continuously, followed by addition of 20 μL of the recovered lysate to make 50 μL. Separately, the standard required for creation of a calibration curve was added to make 0, 1, 2, 3, 4, and 5 mU according to the protocol of the β-Galactosidase Enzyme Assay System with Reporter Lysis Buffer manufactured by Promega. A quantity of 50 μL of Assay 2× buffer was added to each of these wells and incubated for 25 minutes at room temperature. A quantity of 150 μL/well of 1M Na2CO3, a reaction-stopping solution, was added, and the […] (420 nm, reference […]) was measured immediately using an absorption/fluorescence microplate reader Tecan Safire manufactured by Tecan. A calibration curve was created from the absorbance of the standard, and the absorbance converted to mU according to this calibration curve was taken as the activity value.
A quantity of 50 μL/well of the recovered lysate was added to 96-well white plates (Costar (registered trade mark) 3912) manufactured by Corning and incubated for five minutes at room temperature after adding 100 μL of PicaGene (registered trade mark) manufactured by Toyo Ink Co., Ltd. After five minutes, the emission intensity was measured by a Berthold luminometer MicroLumat Plus LB96V manufactured by Berthold Japan. […]
(A reporter such as luciferase makes a cellular process visible.)

The test system of experiment [2] is transgenic mice with luciferase gene and β-galactosidase gene as reporter genes. Put plainly: In vivo read-through activity in reporter transgenic mice (rectus femoris and gastrosoleus muscle). To be noted: subcutaneous, every 24 hours for seven consecutive days; muscle excised on the eighth day. The procedure: Transgenic mice were produced by introducing a luciferase gene and […] gene as reporter genes by the method described in International Publication WO2008/004610 pamphlet.
A physiological saline solution of example compound 2 synthesized in Example 1 was administered subcutaneously to the abdomen of the transgenic mice produced every 24 hours for seven consecutive days. On the eighth day, the rectus femoris and the gastrosoleus muscle of the mice were excised. After mincing by ophthalmological scissors, three times the wet weight of Reporter Lysis Buffer (Promega, US) was added, and the tissue was disrupted by Physcotron (Niti-on Co., Ltd.). After freezing overnight and thawing, the supernatant obtained by centrifugation was introduced into a 96-well plate, and the β-galactosidase activity was measured by a Beta-Glo Assay System (Promega, US) and the luciferase activity was measured by a Bright-Glo Assay System (Promega, US). A luminometer (ATTO) was used in measurement. The luciferase activity value was divided by the […] activity value, and the value multiplied by 10^4 was taken as the read-through efficiency.

The test system of a further experiment is premature stop codon. Put plainly: Read-through activity stated in the description, test not specified. Particulars: statement of the inventors' finding, no test named.
For experiment [3] the following is noted: prior knowledge; cited from earlier work.

“Also recorded” adds a separate entry of the source.

In the case of `CCOC(=O)N(CC(=O)O)NC(=O)C[C@@H](N)CCCN` [compound 15], the “Read-through Activity” value in experiment [1] is on record as 1.92 ± 0.21.
The same measure, in the same setting: with `CC(C)[C@H](N)C(=O)N[C@@H](CCCN)CC(=O)NN(C)CC(=O)O` [compound 16] the figure was 1.87 ± 0.29.
With `CN(CC(=O)O)NC(=O)C[C@@H](N)CCCN` [Example Compound 2, (S)-2-(2-(3,6-diaminohexanoyl)-1-methylhydrazinyl)acetic acid], the “read-through activity / read-through efficiency (FIG. 1-3, in words)” value in experiment [1] is given as “remarkably high read-through efficiency in comparison even to negamycin”. Further, in experiment [2], the “read-through activity in vivo (FIG. 4, in words)” value was “high read-through activity even in comparison to gentamicin and 5-epi-negamycin”.
With `CN(CC(=O)O)NC(=O)C[C@H](CCCN)NC(=O)[C@@H](N)Cc1ccccc1` [compound 19], in experiment [1], the “Read-through Activity” value came out at 3.25 ± 0.07.
Same read-out and setting: the value for `CN(CC(=O)O)NC(=O)C[C@@H](N)CCNCc1ccccc1` [compound 33] was 2.34 ± 0.11; that for `CN(CC(=O)O)NC(=O)C[C@H](CCN)NC(=O)[C@@H](N)CCN` [compound 40] was 1.50 ± 0.05.
Turning to `CC(C)[C@H](N)C(=O)N[C@@H](CCN)CC(=O)NN(C)CC(=O)O` [compound 35], the “Read-through Activity” value in experiment [1] turned out to be 3.09 ± 0.62.
Take `CN(CC(=O)O)NC(=O)CC(N)CC(O)CN` (stereo not drawn) [5-epi-negamycin]: in the experiment with premature stop codon, the “read-through activity (in words)” value is “has read-through activity”.
Turning to `CCOC(=O)CN(C)NC(=O)C[C@@H](N)CCCN` [Example Compound 5, (S)-ethyl 2-(2-(3,6-diaminohexanoyl)-1-methylhydrazinyl)acetate], the “read-through activity / read-through efficiency (FIG. 1-3, in words)” value in experiment [1] is given as “remarkably high read-through efficiency in comparison even to negamycin”.
As for `CN(CC(=O)OCc1ccccc1Br)NC(=O)C[C@@H](N)CCN` [compound 25], the “Read-through Activity” value in experiment [1] came out at 1.26 ± 0.07.
Same read-out and setting: with `CN(CC(=O)O)NC(=O)C[C@H](CCN)NC(=O)[C@@H](N)CCCCN` [compound 42] the figure was 2.14 ± 0.18; with `C[C@H](N)C(=O)N[C@@H](CCN)CC(=O)NN(C)CC(=O)O` [compound 36], 1.92 ± 0.40.
Same read-out and setting: the value for `CN(CC(=O)O)NC(=O)C[C@@H](N)CCNCc1ccccc1` [compound 28] was 1.40 ± 0.04.
As for `CC(C)C[C@H](N)C(=O)N[C@@H](CCCN)CC(=O)NN(C)CC(=O)O` [Example Compound 7, 2-(2-((S)-6-amino-3-((S)-2-amino-4-methylpentanamide)hexanoyl)-1-methylhydrazinyl)acetic acid], in experiment [1], the “read-through activity / read-through efficiency (FIG. 1-3, in words)” value was “remarkably high read-through efficiency in comparison even to negamycin”.
Regarding `CN(CC(=O)O)NC(=O)C[C@H](CCN)NC(=O)[C@@H](N)CCCN` [compound 46], in experiment [1], the “Read-through Activity” value is given as 1.60 ± 0.13.
Turning to `CCCNCC[C@H](N)CC(=O)NN(C)CC(=O)O` [compound 26], the “Read-through Activity” value in experiment [1] came out at 1.44 ± 0.04.
Take `CN(CC(=O)O)NC(=O)C[C@@H](N)CCNS(C)(=O)=O` [compound 32]: the “Read-through Activity” value in experiment [1] was determined as 1.24 ± 0.09.
Same read-out and setting: the value for `CN(CC(=O)O)NC(=O)C[C@@H](N)CCNC(=O)CN` [compound 34] was 2.00 ± 0.13; that for `CCCCCNCC[C@H](N)CC(=O)NN(C)CC(=O)O` [compound 27] was 1.64 ± 0.12.
The same measure, in the same setting: with `CC(C)C[C@@H](N)C(=O)N[C@@H](CCCN)CC(=O)NN(C)CC(=O)O` [compound 23] the figure was 5.65 ± 0.09.
For `CN(CC(=O)O)NC(=O)C[C@H](N)C[C@@H](O)CN` [negamycin, methylhydrazinoacetic acid-linked δ-hydroxy-β-lysine, reference compound], the “antimicrobial activity (in words)” value in experiment [3] is “high antimicrobial activity”. For the same compound, the “Read-through Activity” value in experiment [1] stood at 1.53±0.04.
With `CN(CC(=O)O)NC(=O)C[C@H](CCN)NC(=O)[C@@H](N)CCN` [compound 45], the “Read-through Activity” value in experiment [1] is given as 1.65 ± 0.18.
Still for that read-out and setting: the value for `C[C@H](N)C(=O)N[C@@H](CCN)CC(=O)NN(C)CC(=O)O` [compound 41] was 1.57 ± 0.05; that for `CN(CC(=O)O)NC(=O)C[C@H](CCN)NC(=O)CN` [compound 37] was 2.78 ± 0.67.
As to `CN(CC(=O)O)NC(=O)C[C@@H](N)CCN` [Example Compound 3, (S)-2-(2-(3,5-diaminopentanoyl)-1-methylhydrazinyl)acetic acid], the “read-through activity / read-through efficiency (FIG. 1-3, in words)” value in experiment [1] is reported as “remarkably high read-through efficiency in comparison even to negamycin; also recorded: read-through efficiency equal to or greater than that of negamycin”.
Turning to `CN(CC(=O)O)NC(=O)C[C@H](CCCN)NC(=O)[C@@H](N)Cc1ccccc1` [compound 14], in experiment [1], the “Read-through Activity” value came out at 2.13 ± 0.08.
Same read-out and setting: the value for `CN(CC(=O)OCc1ccc(Br)cc1)NC(=O)C[C@@H](N)CCN` [compound 22] was 5.18 ± 0.04; that for `CN(CC(=O)O)NC(=O)C[C@H](CCN)NC(=O)[C@@H](N)CC(=O)O` [compound 44] was 1.58 ± 0.05.
As for `CN(CC(=O)O)NC(=O)C[C@H](CCCN)NC(=O)CN` [compound 17], the “Read-through Activity” value in experiment [1] is 2.10 ± 0.90.
Still for that read-out and setting: the value for `CN(CC(=O)OCc1ccccc1Br)NC(=O)C[C@@H](N)CCN` [compound 20] was 7.07 ± 0.45.
Take `CC(C)C[C@H](N)C(=O)N[C@@H](CC(=O)CN)CC(=O)NN(C)CC(=O)O` [3-N-leucyl-3-epi-5-dehydronegamycin]: in the experiment on premature stop codon, the “read-through activity (in words)” value is reported as “potent read-through activity”. In addition, the “antimicrobial activity (in words)” value in experiment [3] is on record as “no antimicrobial activity”.
Consider `CC[C@H](C)[C@H](N)C(=O)N[C@@H](CCN)CC(=O)NN(C)CC(=O)O` [compound 43], for which the “Read-through Activity” value in experiment [1] worked out at 2.20 ± 0.05.
Still for that read-out and setting: with `CC[C@H](C)[C@H](N)C(=O)N[C@@H](CCN)CC(=O)NN(C)CC(=O)O` [compound 38] the figure was 1.75 ± 0.19; with `CN(CC(=O)O)NC(=O)C[C@@H](N)CCNC(=O)CN` [compound 29], 2.84 ± 0.06.
Take `CN(CC(=O)O)NC(=O)CC(N)CCCN` (stereo not drawn) [3-Epi-5-dehydroxynegamycin]: the “antimicrobial activity (in words)” value in experiment [3] is listed as “weak antimicrobial activity”.
For `CN(CC(=O)OCc1ccccc1)NC(=O)C[C@@H](N)CCN` [compound 24], the “Read-through Activity” value in experiment [1] amounted to 3.89 ± 0.16.
Same read-out and setting: with `CN(CC(=O)O)NC(=O)C[C@H](CCN)NC(=O)[C@@H](N)Cc1ccc(O)cc1` [compound 39] the figure was 1.63 ± 0.14; with `CC(C)C[C@@H](N)C(=O)N[C@@H](CCCN)CC(=O)NN(C)CC(=O)O` [compound 18], 1.30 ± 0.09.
